Results from ChEMBL document CHEMBL1150876, “Purpurediolin and purpurenin, two new cytotoxic adjacent bis-tetrahydrofuran annonaceous acetogenins from the seeds of Annona purpurea” (J Nat Prod, 1998).
Values after ≈ are worked out from the molar mass of the structure shown.

What was measured:
[1] = system: PC-3; experiment: Cytotoxicity against human PC3 cells after 7 days by MTT assay; assay type: functional; conditions: for EC50: Homo sapiens, PC-3, 168 h, read-out: ED50 (the source's name)
[2] = system: HT-29; experiment: Cytotoxicity against human HT-29 cells after 7 days by MTT assay; assay type: functional; conditions: for EC50: Homo sapiens, HT-29, 168 h, read-out: ED50 (the source's name)
[3] = system: MIA PaCa-2; experiment: Cytotoxicity against human MIAPaCa2 cells after 7 days by MTT assay; assay type: functional; conditions: for EC50: Homo sapiens, MIA PaCa-2, 168 h, read-out: ED50 (the source's name)
[4] = system: A498; experiment: Cytotoxicity against human A498 cells after 7 days by MTT assay; assay type: functional; conditions: for EC50: Homo sapiens, A498, 168 h, read-out: ED50 (the source's name)
[5] = system: A549; experiment: Cytotoxicity against human A549 cells after 7 days by MTT assay; assay type: functional; conditions: for EC50: Homo sapiens, A549, 168 h, read-out: ED50 (the source's name)
[6] = system: MCF7; experiment: Cytotoxicity against human MCF7 cells after 7 days by MTT assay; assay type: functional; conditions: for EC50: Homo sapiens, MCF7, 168 h, read-out: ED50 (the source's name)
[7] = system: Artemia salina; experiment: (§1) Toxicity in Artemia salina; assay type: organism-based; conditions: in vivo
[8] = as §1; assay type: organism-based; conditions: in vivo, read-out: ED50 (the source's name)

Row | SMILES | EC50 [1] [µg/mL] | EC50 [2] [µg/mL] | EC50 [3] [µg/mL] | EC50 [4] [µg/mL] | EC50 [5] [µg/mL] | EC50 [6] [µg/mL] | ED50 [7] [×10⁻² ug/ml] | ED50 [1] [µg/mL] | ED50 [2] | ED50 [3] [µg/mL] | ED50 [4] [µg/mL] | ED50 [5] [µg/mL] | ED50 [6] [µg/mL] | LC50 [8] [µg/mL]
1 | CCCCC[C@H](O)CCCC[C@H](O)[C@H]1CC[C@H]([C@H]2CC[C@H]([C@H](O)CCCC[C@H](O)CCCCCCCC3=C[C@H](C)OC3=O)O2)O1 [PURPURENIN] | 1.07 (≈ 1.67 µM) | 0.316 (≈ 0.495 µM) | 1.98 (≈ 3.1 µM) | 1.25 (≈ 1.96 µM) | 1.29 (≈ 2.02 µM) | 1.67 (≈ 2.61 µM) | 2.9 |  |  |  |  |  |  | 
2 | CCCCCCCCCCCC[C@@H](O)[C@H]1CC[C@H]([C@H](O)CCCC[C@H](O)CCCCC[C@@H](O)CC2=CC(C)OC2=O)O1 (some centres undefined) [ANNONACIN] |  |  |  |  |  |  |  | 1.33 (≈ 2.23 µM) | 1.18 µg/mL (≈ 1.98 µM) | 1.9 (≈ 3.18 µM) | 1.16 (≈ 1.94 µM) | 1.32 (≈ 2.21 µM) | 1.96 (≈ 3.28 µM) | 0.46 (≈ 0.771 µM)
3 | CCCCCCCCCC[C@H](O)[C@H]1CC[C@H]([C@H]2CC[C@H]([C@H](O)CCCC[C@H](O)CCCCC[C@@H](O)CC3=C[C@H](C)OC3=O)O2)O1 [ANNOGLAUCIN] | 0.356 (≈ 0.557 µM) |  | 1.45 (≈ 2.27 µM) | 1.01 (≈ 1.58 µM) | 1.08 (≈ 1.69 µM) | 1.56 (≈ 2.44 µM) | 2.2 |  | 1 ×10⁻⁷ ug/ml |  |  |  |  | 
4 | CCCCC[C@H](O)[C@H](O)CCC[C@H](O)[C@H]1CC[C@H]([C@H]2CC[C@H]([C@H](O)CCCCCCCCCCCCC3=C[C@H](C)OC3=O)O2)O1 [PURPUREDIOLIN] | 0.353 (≈ 0.552 µM) |  | 1.44 (≈ 2.25 µM) | 1.36 (≈ 2.13 µM) | 0.443 (≈ 0.693 µM) | 0.916 (≈ 1.43 µM) | 7 |  | 1 ×10⁻⁷ ug/ml |  |  |  |  | 
5 | COc1cccc2c1C(=O)c1c(O)c3c(c(O)c1C2=O)C[C@@](O)(C(=O)CO)C[C@@H]3O[C@H]1C[C@H](N)[C@H](O)[C@H](C)O1 [DOXORUBICIN] | 0.0227 (≈ 0.0418 µM) | 0.00966 (≈ 0.0178 µM) | 0.00145 (≈ 0.00267 µM) | 0.00198 (≈ 0.00364 µM) | 0.00367 (≈ 0.00675 µM) | 0.212 (≈ 0.39 µM) |  |  |  |  |  |  |  | 
